Measurements: patent US6753000B2, “Hydroxystilbene/ascorbic acid compositions for treating skin afflictions” (L'Oreal, priority 1999, dated 2004)

System: normal human dermal fibroblast cultures
Assay: Incorporation of radioactive (tritiated) thymidine into normal human dermal fibroblast cultures (fibroblast proliferation)
Type: cell-based
Settings: for % (thymidine incorporation relative to untreated control = 100) / cpm (counts per minute), tritiated thymidine incorporated: 48 hours contact, 24 hours labeling, EGF 1.67 × 10^−3 μM, vitamin C 20 μM, resveratrol 5 μM, or 5 μM resveratrol + 20 μM vitamin C; for cpm (counts per minute), tritiated thymidine incorporated: untreated control 10320; for %, difference relative to the untreated control / cpm, difference relative to the untreated control: same treatments, value in brackets
Protocol: The study has carried out by measuring the incorporation of radioactive thymidine into normal human dermal fibroblast cultures.
The fibroblast cultures were prepared according to the standard methods of cell culturing, i.e., in MEM/M199 medium marketed by Gibco, in the presence of sodium bicarbonate (1.87 mg/ml), L-glutamine (2 mM), penicillin (50 IU/ml) and 10% foetal calf serum (Gibco).
The test was carried out on cell cultures at 80% of confluence on 24-well plates. Resveratrol, at a concentration of 1.25 μM and 5 μM, was placed in contact with the cells for 48 hours. Labeling with tritiated thymidine ([methyl-3H] thymidine marketed by Amersham, 82 Ci/mmol) was carried out for 24 hours.
The level of tritiated thymidine incorporated was measured at the end of the test by acidic precipitation of the proteins on filters and counting by liquid scintillation.
The results were evaluated relative to a control consisting of cells which had not been treated.
A positive control [EGF: Epidermal Growth Factor] at 1.67×10^−3 μM, which was known to stimulate fibroblast proliferation, was introduced into the test by way of reference.

Compound	% (thymidine incorporation relative to untreated control = 100) [%]	cpm (counts per minute), tritiated thymidine incorporated [cpm]	%, difference relative to the untreated control	cpm, difference relative to the untreated control
O=C1O[C@H]([C@@H](O)CO)C(O)=C1O [vitamin C, ascorbic acid]	132	13595	+32%	(+3275) cpm
Oc1ccc(C=Cc2cc(O)cc(O)c2)cc1 [resveratrol, 3,4′,5-Trihydroxystilbene]	110	11365	+10%	(+1045) cpm
EGF: Epidermal Growth Factor, positive control known to stimulate fibroblast proliferation	283	29214	+183%	(+18894) cpm
